80 compounds from the METLIN SMRT retention time set (Domingo-Almenara et al. 2019) can be followed below.

Structures are written as SMILES.

This series is described as follows: gradient 5% acetonitrile 3 min, to 50% in 2 min, to 85% in 15 min, held 3 min, 100 µL/min. As to conditions: column: Zorbax Extend-C18 2.1 x 50 mm; eluents: water / acetonitrile, 0.1% formic acid. The method, boiled down: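 Data were gathered over 3 months by HPLC coupled to a quadrupole time-of-flight mass spectrometer, operated in positive and negative ionization mode. Mixtures of ~100 pure standards ran on a Zorbax Extend-C18 column (2.1 × 50 mm, 1.8 μm) at 100 μL/min, with water and acetonitrile each containing 0.1% formic acid and dead and dwell volumes of 40 μL and 900 μL. Retention time was read from adduct peaks picked by computer and checked manually.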
In the case of `CC1CCC(NC(=O)c2nnn(Cc3ccc(F)cc3)c2-n2cccc2)CC1` (stereo not given), the RP-LC retention time is 1160 s.
Then `Cc1ccc(-c2nnc(Cc3nc(-c4cccc(Cl)c4)no3)o2)cc1F`, with 1170 s.
For `O=C(Nc1ccc(Nc2ccncc2)cc1)c1ccc(Nc2ccnc3ccc([N+](=O)[O-])cc23)cc1[N+](=O)[O-]` the value was 651 s; for `COc1ccccc1Cc1noc(C2CN(C(=O)c3cc(C4CC4)on3)C2)n1`, 876 s.
With `CCc1ccc(OC(C)C(=O)N(Cc2ccc(C)o2)C2CCS(=O)(=O)C2)cc1` (stereo not given), the RP-LC retention time turned out to be 984 s.
Take `CCCN1C(=O)c2[nH]nc(-c3cccc(OC)c3)c2C1c1cccnc1` (stereo not given): the RP-LC retention time amounted to 669 s.
Regarding `COc1ccc(-c2cn3cccnc3n2)cc1NC(=O)c1cccc(OC)c1OC`, the RP-LC retention time is 718 s.
For `Cc1ccc(NC(=O)N2CCC(n3cnc4cc(F)ccc4c3=O)CC2)c(C)c1` the value was 811 s.
For `Cc1ccc(NC(=O)Cn2nc(N3CCOCC3)c3ccccc3c2=O)c(Br)c1` the value was 884 s; for `CC(C)NC(=O)C1CCc2sc(C(=O)N3CCCCC3)cc2C1` (stereo not given), 779 s; for `CC1CCN(C(=O)c2nc(-c3ccnc(N4CCCC4)c3)no2)CC1`, 684 s.
Then `CN1c2cc(F)ccc2C(=O)NC12CCN(C(=O)c1ccc3c(c1)OCO3)CC2`, with 724 s.
`CC(C)CCNC(=O)C1(C)CN(S(=O)(=O)c2ccccc2)CC(=O)N1CCCN1CCCCC1` (stereo not given) yielded an RP-LC retention time of 674 s.
For `CSc1ncccc1C(=O)NCc1ccc2c(c1)ncn2C(C)C` the value was 585 s; for `NC(=O)CS(=O)C(c1ccccc1)c1ccccc1` (stereo not given), 710 s.
For `CN1c2cc(F)ccc2C(=O)NC12CCN(C(=O)Nc1ccccc1)CC2` the value was 695 s.
Then `O=C(COc1ccccc1)N1CCC(c2noc(-c3ccncc3)n2)C1` (stereo not given), with 737 s; and `COc1cccc(-c2cc(=O)n3c4ccccc4n(CC(=O)Nc4ccc(F)cc4)c3n2)c1`, with 980 s.
`CC(C)c1ccc(OCC(O)Cn2c(C3CC3)nc3ccccc32)cc1` (stereo not given) returned an RP-LC retention time of 788 s.
Then `Cc1ccc(CNC(=O)c2cc3c(=O)n(C)ccc3n2C)o1`, with 668 s.
Compound `O=C([C@@H]1C[C@H](Oc2cccnc2)CN1C(=O)c1ccoc1)N1CCCC1` gave an RP-LC retention time of 553 s.
`O=C(Cn1nc2c3cc(-c4ccc(F)cc4)nn3ccn2c1=O)N1CCN(c2ccc(F)cc2)CC1` yielded an RP-LC retention time of 920 s.
For `Cc1nnc([C@@H]2CC(F)(F)CN2C(=O)Cc2c[nH]c3ccccc23)o1` the value was 723 s.
For `Fc1ccc(Nc2nc(NCC3CCCO3)nc3[nH]ncc23)cc1` (stereo not given) the value was 578 s.
Then `COC(=O)C(C)n1cccc1-c1nc(-c2ccncc2)no1` (stereo not given), with 840 s.
The compound `O=C(CS(=O)Cc1ccco1)NC/C=C\COc1cc(CN2CCCCC2)ccn1` (stereo not given) had an RP-LC retention time of 632 s.
For `O=C(NCc1ccc2c(c1)OCO2)C1CCN(c2cn[nH]c(=O)c2)C1` (stereo not given) the value was 627 s.
`CCN1CCC(N(Cc2cccs2)C(=O)Nc2ccc(Cl)cc2)CC1` displayed an RP-LC retention time of 682 s.
`CCc1nc(-c2ccc(-c3noc(COc4ccc(F)cc4)n3)cc2)cs1` displayed an RP-LC retention time of 1310 s.
In the case of `Cc1ccc(C)c(S(=O)(=O)N2CC[C@H](n3c(=O)n(C)c4cccnc43)C2)c1`, the RP-LC retention time amounted to 892 s.
Then `CCOC(=O)c1noc2nc(C)nc(NCCCN3CCN(c4ccccc4)CC3)c12`, with 668 s; and `Fc1ccc(F)c(-c2nc(-c3ccc(-n4cccn4)nc3)no2)c1`, with 1170 s; and `Cc1cc(C)n(Cc2nc(-c3ccc(NC(=O)C4CCCO4)cc3)oc2C)n1` (stereo not given), with 795 s.
For `CCCN(C(=O)c1ccc(Br)cc1)C1(C(=O)NCc2ccccc2)CCN(C(C)=O)CC1` the value was 626 s.
With `Fc1ccc(-c2nnc(Cc3nc(-c4ccc(Cl)cc4)no3)o2)cc1`, the RP-LC retention time came out at 1080 s.
Take `C=CCN1CC(c2nc3ccccc3n2Cc2c(F)cccc2Cl)CC1=O` (stereo not given): the RP-LC retention time was determined as 688 s.
For `Cc1ccc(NC(=O)Cc2csc3nc(-c4ccc(C)c(C)c4)cn23)cc1C` the value was 850 s; for `O=C(NC1CN2CCC1CC2)c1cc2ccoc2cn1` (stereo not given), 620 s; for `CCCNc1cc(N2CCC(CCC(=O)NCc3ccc(F)c(Cl)c3)CC2)ncn1`, 713 s.
On to `CC(C)=CCC/C(C)=C/CNCCNC1C2CC3CC(C2)CC1C3` (stereo not given), for which the RP-LC retention time came to 624 s.
Then `CN(C)c1cncnc1-n1cc(NC(=O)CCc2ccccc2)cn1`, with 624 s.
For `COc1cccc(-c2nnc(Cc3nc(-c4ccncc4)no3)o2)c1` the value was 739 s; for `CCCc1nc2cccnc2n1C1CCN(C(=O)NCc2ccccc2)C1` (stereo not given), 603 s.
For `COc1ccc(CNC(=O)c2ccc3c(c2)nc2n3CCN(c3ccccc3)C2=O)cc1` the value was 732 s.
As to `COc1ccc(Cl)cc1NC(=O)N1CCN(CCn2c(C(C)C)nc3cccnc32)CC1`, the RP-LC retention time is 649 s.
For `Cc1cc(C(=O)Nc2ccc3c(c2)CCC(=O)N3C)no1` the value was 686 s; for `Cc1cc2n(n1)CCCN2C(=O)CCC(=O)N1CCN(c2ccccc2)CC1`, 678 s.
Then `O=C1CCCc2cc(S(=O)(=O)NCc3cccc(Br)c3)ccc2N1`, with 764 s; and `COc1ccc(OCc2nnc3sc(-c4cc(CC(C)C)[nH]n4)nn23)cc1`, with 917 s.
For `O=C(Nc1sc2c(c1CN1CCN(c3ccccn3)CC1)CCCC2)c1ccco1` the value was 671 s; for `COc1ccc(NC(=O)N2CCC3(CC2)NC(=O)c2cc(Cl)ccc2N3C)cc1`, 753 s.
Compound `Cc1ccc(S(=O)(=O)Nc2ccc(-c3cn4ccccc4n3)cc2)cc1` had an RP-LC retention time of 628 s.
With `Cc1cc(C(=O)NCc2ccc(C)o2)c2cc(Br)ccc2n1`, the RP-LC retention time was 801 s.
Then `Cc1ccc(Cl)cc1N(C)C(=O)C1CCCN(c2ncnc3c2nc2n3CCCCC2)C1` (stereo not given), with 918 s.
With `COCCN1C(=O)c2ccccc2C(C(=O)NCc2ccccc2Cl)C12CCCC2` (stereo not given), the RP-LC retention time is 905 s.
For `O=C(CSc1ccc(F)cc1)Nc1nnc(COc2ccccc2)o1` the value was 790 s; for `COc1cccc2cc(C(=O)NCc3ccc(S(N)(=O)=O)cc3)oc12`, 669 s; for `Cn1c(=O)c(N2CCC(NC(=O)Nc3cccc(Br)c3)CC2)nc2ccccc21`, 965 s.
Then `Cc1[nH]c(C(=O)N2CCC(CC(=O)NC3CCCCC3)CC2)c(C)c1C(=O)OC(C)C`, with 825 s.
Then `O=C(C1CCN(c2cnc(N3CCOCC3)nc2)CC1)N1CCCCCC1`, with 684 s; and `Oc1ccc2c3c1O[C@H]1c4[nH]c5ccccc5c4C[C@@]4(O)C(C2)N(CC2CC2)CCC314` (stereo not given in full), with 692 s.
For `CC(NS(=O)(=O)CCCOc1ccc2c(c1)OCO2)c1ccccc1` (stereo not given), the RP-LC retention time came out at 750 s.
In the case of `Cc1noc(C)c1CN1CCC(NC(=O)c2cccc(C#N)c2)C1` (stereo not given), the RP-LC retention time worked out at 578 s.
Consider `CC(C)CNc1nc2ccncc2n(Cc2ccccc2)c1=O`, for which the RP-LC retention time amounted to 672 s.
Then `O=C(NCC1(CO)CC1)C(=O)Nc1cccc(N2CCCCC2=O)c1`, with 610 s.
In turn, `Cc1ccn2cc(-c3ccc(C)c(NS(=O)(=O)c4cc(C)c(C)cc4C)c3)nc2c1` gave an RP-LC retention time of 759 s.
Then `O=C(CCc1c(-c2ccc(Br)cc2)nc2ccccn12)NCCN1CCCC1`, with 567 s; and `O=C(Cc1ccc(Br)cc1)Nc1nc(-c2ccccc2)cs1`, with 1100 s; and `Fc1ccc(Cl)cc1-c1nc(-c2ccc(-n3cccn3)nc2)no1`, with 1290 s.
The compound `CCN(CC)c1ccc(-c2noc(CN3CCc4ccccc4C3)n2)cn1` gave an RP-LC retention time of 718 s.
Then `CCc1noc(-c2cccn2Cc2ccc(OC)c(F)c2)n1`, with 1100 s.
In the case of `COCCC1(N(C)C)CCN(S(=O)(=O)c2ccc(C#N)cc2)CC1`, the RP-LC retention time was found to be 613 s.
For `O=C(c1nccc2ccccc12)N1CCCCC1c1nc(C2CC2)no1` (stereo not given) the value was 813 s; for `O=C(Cn1cnc2nc3c(cc2c1=O)CCCC3)Nc1ccc(Cl)cc1F`, 778 s.
Then `C=CCNC(=O)c1cnn(-c2cc(-c3nc(C(C)(C)C)no3)ccn2)c1C`, with 1020 s.
Then `Cc1ccccc1CNC(=O)c1cc2n(n1)CC(C)(C(=O)NC1CCCC1)N(C)C2=O` (stereo not given), with 767 s; and `CCc1nnc(-c2ccc3ccn(CC(=O)N4CCN(c5ccccn5)CC4)c3c2)o1`, with 614 s; and `CC(CN1CC(=O)NC(=O)C1)N1CC(=O)NC(=O)C1` (stereo not given), with 530 s.
For the compound `O=C(CN1C(=O)C2CCCCN2c2ccc(C(=O)N3CCCC3)cc21)Nc1ccc2c(c1)OCCO2` (stereo not given), the RP-LC retention time is 779 s.
For `CCN(CC)CCCNC(=O)c1cc(C)nc2ccc(Br)cc12` the value was 585 s.
